Here are results for 92 molecules from ChEMBL document CHEMBL3507680, “University of Dundee, Gates Library screen for HepG2 cell viability”.

This data set can be described thus: Human HepG2 cell viability assay in 384 well format. It counts as toxicity, cell-based. The arrangement: dose 125 nL, time 70.5 hour; cytotoxicity at 70.5 h: concentration not given beside the values. The following applies: HepG2 cells, read-out: Inhibition.

Consider `CCC1(CC)Cc2ccccc2-c2nc(NCCO)[nH]c(=O)c21`, for which the cytotoxicity at 70.5 h was -1.26%.
With `CC(C)COCC1CN(Cc2cnn(C)c2)Cc2ncn(C)c21` (configuration not stated) the figure was -7.87%; with `CN(C)CCNC(=O)c1cc(-c2cnc(N(C)C)nc2)cn1CC1CC1`, -6.44%; with `CCS(=O)(=O)N1C[C@H]2CN(Cc3ccc(OC)cc3)C(=O)[C@H]2C1`, -10.9%.
With `CCS(=O)(=O)N1C[C@H]2CN(Cc3cccc(C)c3)C(=O)[C@H]2C1` the figure was -10.5%.
With `Cc1ccc(N2CC[C@H]3OCC[C@@]3(C(=O)N3CCCO3)C2)nn1` the figure was -4.42%.
As for `CC(C)Nc1ncnc2c1CCN(C(=O)[C@H]1CCCO1)CC2`, the cytotoxicity at 70.5 h was -6.46%.
Next, `Cc1ccc(N2CC[C@H](O)[C@@H]2Cc2cnn(C)c2)nn1`: -6.12%.
Next, `O=C(NCc1ccccc1)N1CCC2(CC(=O)N(c3ccccc3)C2)C1` (configuration not stated): -5.57%.
As to `Cc1cc(C(=O)N2CCc3c(CN(C)C)nn(C)c3C2)[nH]n1`, the cytotoxicity at 70.5 h was -12.8%.
Next, `CN(C)Cc1nn(C)c2c1CN(C(=O)c1cccc(C#N)c1)C2`: -11.5%; `O=C(Nc1ccccc1)N1CCC2(CC(=O)N(c3ccsc3)C2)C1` (configuration not stated): -10%; `N#Cc1cccc(CN2C[C@@H](NC(=O)C3CC3)[C@H]3OCCC[C@H]32)c1`: -12.1%.
With `O=C(c1ccnnc1)N1CCO[C@H]2[C@H](Oc3cccnc3)CC[C@@H]21` the figure was -13.8%; with `CC1=N[C@@]2(CC[C@@H]3CN(Cc4ccccc4F)C[C@@H]32)C(=O)N1C`, -20%; with `COCC1Cn2nnc(-c3cnn(C)c3)c2CN1Cc1ccc(C)o1` (configuration not stated), -12.2%.
With `O=C(c1ccnnc1)N1C[C@@H](OCc2cccnc2)[C@H]2OCCC[C@H]21` the figure was 27.3%; with `O=C(c1ccc[nH]1)N1Cc2nccn2CC(COc2cccnc2)C1` (configuration not stated), 18.1%.
On to `COc1cc(N2CC[C@@H]3O[C@@H](C(=O)NC(C)C)C[C@@H]32)ncn1`, for which the cytotoxicity at 70.5 h was -8.65%.
In the case of `Cc1ccc(N2CCO[C@H]3CN(C(=O)c4cccc(C)n4)C[C@H]32)nn1`, the cytotoxicity at 70.5 h is -9.8%.
Next, `COCCNC(=O)[C@@H]1C[C@H]2[C@H](CCN2c2cc(OC)ncn2)O1`: -10.5%.
Next, `O=C(CC1CC1)N1Cc2nccn2CC(COc2cccnc2)C1` (configuration not stated): -14.7%; `COCC(=O)N1Cc2nccn2CC(COc2cccnc2)C1` (configuration not stated): -14.4%.
Next, `NC(=O)c1ccc2c(c1)nc1n2CCN(Cc2ccccc2)C1`: -15.9%; `O=C(Cn1cc(I)cn1)Nc1cccnc1`: -9.49%.
As for `CNc1nc2c(s1)C(c1cccc(F)c1F)CC(=O)N2` (configuration not stated), the cytotoxicity at 70.5 h was -11.9%.
Next, `O=C(NCc1ccco1)c1nn(C2CCS(=O)(=O)C2)c2c1CCCC2` (configuration not stated): -10.4%; `CC(=O)N1CCN(C(=O)c2cc(-n3cnnn3)ccc2Cl)CC1`: 24.6%; `COc1ccccc1C1SCC(=O)Nc2n[nH]cc21` (configuration not stated): 3.24%.
Next, `COc1ccc(NCc2nc(=O)n(CCC(C)C)[nH]2)cc1`: -14.5%; `CNc1nc2c(s1)C(c1c(Cl)cccc1Cl)CC(=O)N2` (configuration not stated): -15.8%.
Regarding `CC(=O)N1CCC2(CC1)C(=O)N(CC1CC1)c1ccccc12`, the cytotoxicity at 70.5 h was -11.9%.
Next, `O=C1CC2(CCN(S(=O)(=O)c3cccs3)C2)CN1c1ccccc1` (configuration not stated): -9.28%.
With `O=C(c1ccno1)N1CCC2(CC1)C(=O)N(CC1CC1)c1ccccc12`, the cytotoxicity at 70.5 h was -17.3%.
With `CCOC1COC2(CCN(Cc3ccc4c(c3)OCO4)CC2)C1` (configuration not stated), the cytotoxicity at 70.5 h is -9.87%.
Next, `O=C(O)c1ccc2ccc(N3CCN(CC4CC4)CC3)n2c1`: -9.01%; `CC(C)CN1CCC2(CCN(Cc3ccoc3)CC2)C1=O`: -12.7%; `CN1[C@H](Cn2cccn2)C[C@@H]2CN(C(=O)Cc3cccs3)CC[C@@H]21`: 24.7%.
With `O=C(C1CCOC1)N1CC[C@@H](O)[C@@H]1Cc1ccccc1` (some centres not stated) the figure was -12.1%; with `CC(C)CN1CCC2(CCN(C(=O)c3ccc(F)cc3)CC2)C1=O`, -5.58%.
On to `C[C@H]1C(=O)NC[C@H]2CN(Cc3ccccc3)C[C@H]21`, for which the cytotoxicity at 70.5 h was -2.5%.
With `O=C1CC2(CCCCN2C(=O)c2ccsc2)CN1CC1CC1` (configuration not stated) the figure was 8.93%; with `CN(C)CCN1CCCC12CCN(C(=O)c1cnccn1)CC2`, 6.16%; with `CCC(CO)NC(=O)c1ccc2ccc(N(C)CC3CC3)n2c1` (configuration not stated), 3.39%.
With `COCC1CN(S(C)(=O)=O)Cc2ncn(CC3CC3)c21` (configuration not stated) the figure was -6.83%; with `O=C(NC[C@H]1OC[C@@H]2CCN(C(=O)c3ccco3)C[C@@H]21)C1CC1`, -6.37%; with `Cc1occc1C(=O)N1CCc2c(CNS(C)(=O)=O)cncc2C1`, -20.9%.
For the molecule `O=C1CC2(CCCNC2)C(=O)N1Cc1ccc(F)cc1` (configuration not stated), the cytotoxicity at 70.5 h is -10.9%.
Next, `O=C1[C@H]2CN(S(=O)(=O)c3ccccc3)C[C@H]2CN1Cc1cccnc1`: -15.6%; `CN(C)c1ncc(-c2cc(C(=O)NCCC#N)n(CC3CC3)c2)cn1`: -12.9%; `COCCCNC(=O)c1cc(-c2cnc(N(C)C)nc2)cn1CC1CC1`: -6.95%.
With `c1cncc(CN2C[C@H]3CCC[C@@H](CNc4cnccn4)[C@H]3C2)c1` the figure was -4.05%; with `O=C1[C@H]2CN(S(=O)(=O)C3CC3)C[C@H]2CN1Cc1cccnc1`, -8.9%; with `CN(C)C(=O)[C@@H]1CCO[C@@H]2CCN(CCOCc3ccccc3)C[C@H]21`, 20.6%.
With `O=C(NCc1cccnc1)N1CCC2(CC(=O)N(c3ccsc3)C2)C1` (configuration not stated) the figure was -6.34%; with `CC1=N[C@@]2(CC[C@@H]3CN(Cc4ccccc4C)C[C@@H]32)C(=O)N1CC1CC1`, -9.24%.
Turning to `O=C(C1CCCO1)N1CCc2ncnc(NC3CCC3)c2CC1` (configuration not stated), the cytotoxicity at 70.5 h is -15.3%.
With `N#Cc1cccc(CN2C[C@H](NC(=O)C3CC3)[C@H]3OCCC[C@H]32)c1` the figure was -14%; with `CN(C)C(=O)[C@@H]1CC[C@@H]2[C@@H](CCN2Cc2nccs2)O1`, -14.7%.
With `CO[C@H]1CC[C@H]2[C@H]1OCCN2Cc1ccc(F)c(F)c1` the figure was 36.7%.
With `CC(C)N1CCC(c2nc3ccc(-c4ccnn4C)cn3n2)CC1` the figure was 19.8%; with `Cn1cc(CN2CC[C@@H]3[C@H]2CCC(=O)N3c2ccccc2)cn1`, -8.65%.
On to `Cc1nc(CN2CCC3(CCN(c4cnn(C)c4)C3=O)C2)cs1` (configuration not stated), for which the cytotoxicity at 70.5 h is -14.5%.
With `CC(C)CC(=O)N1C[C@@H]2CCN(c3ncccn3)C[C@@H]2C1` the figure was 42.7%; with `CC(=O)N1[C@H](CN(C)C)C[C@@H]2CN(C(=O)c3cccc(F)c3)CC[C@@H]21`, -14.7%.
Consider `COCC(=O)NC1CC2(CCN(CCF)CC2)Oc2ccccc21` (configuration not stated), for which the cytotoxicity at 70.5 h is -10.9%.
With `O=C(Cc1cccs1)N1CC[C@H]2[C@@H]1CCC(=O)N2c1cccnc1` the figure was 2.43%.
With `CN1CCC2(CC1)C(=O)N(CC1CC1)c1ccccc12` the figure was -9.7%; with `COCCN1C[C@@H]2CN(Cc3cccc(C)n3)C[C@@H]2C1=O`, -13.6%.
On to `Cc1cccc(CN2CCC3(CCN(c4ccccn4)C3)C2=O)c1` (configuration not stated), for which the cytotoxicity at 70.5 h was -11.4%.
Take `COc1cccc(CN2CCC3(CCN(C(=O)[C@H]4CCCO4)CC3)C2)c1`: the cytotoxicity at 70.5 h was -4.99%.
For the molecule `Cc1ccc(C(=O)N2CCC3(CC2)CC(N2CCOCC2)C3)cc1`, the cytotoxicity at 70.5 h was -12.7%.
Next, `O=C(C1CCCC1)N1CCC2(CC1)COCCN2CC1CC1`: -12.4%; `Cc1cccc(CN2C(=O)CCC23CCN(c2ncc(F)cn2)CC3)n1`: -5.55%; `Cc1nc(CN2CCC3(CC2)NC(=O)CC3c2ccccc2)cs1` (configuration not stated): -2.14%.
Next, `COCCN1CCCC12CCN(C(=O)CC1CCCC1)CC2`: 3.49%; `O=C1CC2(CCN(CC3CC3)C2)CN1c1cccc(F)c1` (configuration not stated): 6.96%; `Cn1cc(CN2CCC(F)(F)C3(CCN(c4ccccn4)C3)C2)cn1` (configuration not stated): -14.4%.
Next, `CC(C)N(C)Cc1cnc2n1CCN(Cc1ccsc1)C2`: -8.42%; `Cn1cc(CN2CCC(F)(F)C3(CCN(c4cccnc4)C3)C2)cn1` (configuration not stated): -9.49%; `Cc1ccc(CN2CCn3c(CN(C)C(C)C)cnc3C2)s1`: -6.07%.
As for `CC(C)N(C)Cc1cnc2n1CCN(Cc1ccc(F)cc1)C2`, the cytotoxicity at 70.5 h was -9.32%.
Next, `COCc1cncc2c1CCN(Cc1cccs1)C2`: 0.63%.
As to `COCCN1CCOCC2(CCCN(Cc3cccc(F)c3)C2)C1` (configuration not stated), the cytotoxicity at 70.5 h is -5.38%.
With `Cc1cccc(CN2CCC3(CCN(Cc4ccccn4)C3)C2=O)c1` (configuration not stated) the figure was 27.9%.
With `CC[C@H]1N(C)CCC[C@]12CCC(=O)N2Cc1ccncc1` the figure was 10.9%.
Next, `CN1CCN(CCO)C(=O)C12CCN(Cc1ccsc1)CC2`: -8.5%.
Regarding `Cc1ccc(C(=O)N2CCC3(CC2)CCN(CCN(C)C)C3=O)cn1`, the cytotoxicity at 70.5 h is -8.77%.
With `Cc1cccc(CN2C(=O)C[C@H]3[C@@H]2CCN3CC2CC2)n1`, the cytotoxicity at 70.5 h is -2.5%.
Next, `Cc1ccc(CN2Cc3nnn(C)c3C(COCCN(C)C)C2)s1` (configuration not stated): -4.13%.
For `c1ccc(CN2CCC3(CC2)CCN(Cc2cccs2)C3)nc1`, the cytotoxicity at 70.5 h stood at 0.064%.
With `c1ccc(CN2CCc3c(COCc4ccncc4)cncc3C2)nc1` the figure was -4.58%.
